Laboratory results as given in patent publication US9458113B2 (Boehringer Ingelheim International GmbH, priority 2014, dated 2016).
≈ marks a conversion by molar mass, not a printed value.

Legend:
[1] = molecular target: neutrophil elastase in zymosan-stimulated human plasma (Homo sapiens (Human), UniProt P08246); experiment: Neutrophil elastase inhibitory activity in human plasma; type: biochemical; settings: human plasma from zymosan-stimulated blood
[2] = Metabolic stability with human liver microsomes; type: in vitro ADME; settings: pH 7.6; pooled human liver microsomes, 1 μM test compound, 37° C.; read-out: t1/2 INVITRO
[3] = Drug transport across human Caco-2 cells; type: in vitro ADME; settings: apparent permeability coefficient, Caco-2 monolayers, pH 7.2, 37° C.; for Papp A→B at 10 µM: apical-to-basal (absorptive), read-out: PEAB; for Papp B→A at 10 µM: basal-to-apical (secretory), read-out: PEBA
Excerpt: Assay for Determination of Drug Transport Across Human Caco-2 Cells
The assay provides information on the potential of a compound to pass the cell membrane, on the extent of oral absorption as well as on whether the compound is actively transported by uptake and/or efflux transporters. For the measurement of permeability across polarized, confluent human cancer colon carcinoma cells 2 (Caco-2) cell monolayers grown on permeable filter supports are used as the in vitro absorption model.
Apparent permeability coefficients (PE) of the compounds across the Caco-2 monolayers are measured (pH 7.2, 37° C.) in apical-to-basal (AB) (absorptive) and basal-to-apical (BA) (secretory) transport direction. AB permeability (PEAB) represents drug absorption from the intestine into the blood and BA permeability (PEBA) drug secretion from the blood back into the intestine via both passive permeability as well as active transport mechanisms mediated by efflux and uptake transporters that are expressed on the Caco-2 cells. The compounds are assigned to permeability/absorption classes by comparison of the AB permeabilities with the AB permeabilities of reference compounds with known in vitro permeability and oral absorption in the human. Identical or similar permeabilities in both transport directions indicate passive permeation, vectorial permeability points to additional active transport mechanisms. […] Active transport is concentration-dependently saturable.
Caco-2 cells (1-2*10^5 cells/cm^2 area) are seeded on filter inserts (Costar transwell polycarbonate or PET filters, 0.4 μm pore size) and cultured (DMEM) for 10 to 25 days. Compounds are dissolved in appropriate solvent (like DMSO, […] stock solutions). Stock solutions are diluted with HTP-4 buffer (128.13 mM NaCl, 5.36 mM KCl, 1 mM MgSO4, 1.8 mM CaCl2, 4.17 mM NaHCO3, 1.19 mM Na2HPO4x7H2O, 0.41 mM NaH2PO4xH2O, 15 mM HEPES, 20 mM glucose, pH 7.2) to prepare the transport solutions (typically 10 μM compound, final DMSO<=0.5%). The transport solution (TL) is applied to the apical or basolateral donor side for measuring A-B or B-A permeability (3 filter replicates), respectively. The receiver side contains HTP-4 buffer supplemented with 2% BSA. Samples are collected at the start and end of experiment from the donor and at various time intervals for up to 2 hours also from the receiver side for concentration measurement by LC-MS/MS or scintillation counting. Sampled receiver volumes are replaced with fresh receiver solution.
The apparent permeability coefficients (PEAB and PEBA) of selected compounds in the Caco-2 drug transport assay described above are listed in Table 16.

[4] = Aqueous solubility (High Throughput Method); type: physicochemical; settings: McIlvaine buffer pH 6.8 with 2.5% DMSO, kinetic from dmso stock, McIlvaine buffer pH 6.8, 2.5% DMSO, 24 h shaking
Procedure: Assay for Determination of Aqueous Solubility (“High Throughput Method”)
Starting from a […] DMSO stock solution, aliquots are diluted with acetonitrile/water (1/1) and McIlvaine buffer pH 6.8, respectively. After 24 h of shaking, the solutions or suspensions are filtered and analyzed by LC-UV. The amount dissolved in buffer is compared to the amount dissolved in the acetonitrile/water (1/1) solution. Solubility is measured from 0.001 to 0.125 mg/ml at a DMSO concentration of 2.5%. If more than 90% of the compound is dissolved in buffer, the value is marked with “>”.

cytochrome P450 2C9 = cytochrome P450 2C9 (Homo sapiens (Human), UniProt P11712); experiment: Cytochrome P450 2C9 inhibition; type: in vitro ADME; settings: human liver microsomes, Diclofenac hydroxylation; read-out: IC50 (CYP 2C9)
Excerpt: Assay for Determination of Cytochrome P450 2C9 Inhibition
(§1) (I=inhibitor concentration, S=slope factor, B=background activity)

cytochrome P450 2C19 = cytochrome P450 2C19 (Homo sapiens (Human), UniProt P33261); experiment: Cytochrome P450 2C19 inhibition; type: in vitro ADME; settings: human liver microsomes, (S)-Mephenytoin hydroxylation; read-out: IC50 (CYP 2C19)
Excerpt: Assay for Determination of Cytochrome P450 2C19 Inhibition
as §1

cytochrome P450 2C8 = cytochrome P450 2C8 (Homo sapiens (Human), UniProt P10632); experiment: Cytochrome P450 2C8 inhibition; type: in vitro ADME; settings: human liver microsomes, Amodiaquine deethylation; read-out: IC50 (CYP 2C8)
Excerpt: Assay for Determination of Cytochrome P450 2C8 Inhibition
as §1

[5] = molecular target: hERG (human ether-a-go-go-related gene) potassium channel (Homo sapiens (Human), UniProt Q12809); experiment: hERG inhibition patch clamp assay; type: cell-based
hERG potassium channel = hERG potassium channel (Homo sapiens (Human), UniProt Q12809); experiment: hERG inhibition patch clamp assay; type: cell-based; settings: human, @ 10 μM
hERG potassium channel, sequence (Q12809 whole entry): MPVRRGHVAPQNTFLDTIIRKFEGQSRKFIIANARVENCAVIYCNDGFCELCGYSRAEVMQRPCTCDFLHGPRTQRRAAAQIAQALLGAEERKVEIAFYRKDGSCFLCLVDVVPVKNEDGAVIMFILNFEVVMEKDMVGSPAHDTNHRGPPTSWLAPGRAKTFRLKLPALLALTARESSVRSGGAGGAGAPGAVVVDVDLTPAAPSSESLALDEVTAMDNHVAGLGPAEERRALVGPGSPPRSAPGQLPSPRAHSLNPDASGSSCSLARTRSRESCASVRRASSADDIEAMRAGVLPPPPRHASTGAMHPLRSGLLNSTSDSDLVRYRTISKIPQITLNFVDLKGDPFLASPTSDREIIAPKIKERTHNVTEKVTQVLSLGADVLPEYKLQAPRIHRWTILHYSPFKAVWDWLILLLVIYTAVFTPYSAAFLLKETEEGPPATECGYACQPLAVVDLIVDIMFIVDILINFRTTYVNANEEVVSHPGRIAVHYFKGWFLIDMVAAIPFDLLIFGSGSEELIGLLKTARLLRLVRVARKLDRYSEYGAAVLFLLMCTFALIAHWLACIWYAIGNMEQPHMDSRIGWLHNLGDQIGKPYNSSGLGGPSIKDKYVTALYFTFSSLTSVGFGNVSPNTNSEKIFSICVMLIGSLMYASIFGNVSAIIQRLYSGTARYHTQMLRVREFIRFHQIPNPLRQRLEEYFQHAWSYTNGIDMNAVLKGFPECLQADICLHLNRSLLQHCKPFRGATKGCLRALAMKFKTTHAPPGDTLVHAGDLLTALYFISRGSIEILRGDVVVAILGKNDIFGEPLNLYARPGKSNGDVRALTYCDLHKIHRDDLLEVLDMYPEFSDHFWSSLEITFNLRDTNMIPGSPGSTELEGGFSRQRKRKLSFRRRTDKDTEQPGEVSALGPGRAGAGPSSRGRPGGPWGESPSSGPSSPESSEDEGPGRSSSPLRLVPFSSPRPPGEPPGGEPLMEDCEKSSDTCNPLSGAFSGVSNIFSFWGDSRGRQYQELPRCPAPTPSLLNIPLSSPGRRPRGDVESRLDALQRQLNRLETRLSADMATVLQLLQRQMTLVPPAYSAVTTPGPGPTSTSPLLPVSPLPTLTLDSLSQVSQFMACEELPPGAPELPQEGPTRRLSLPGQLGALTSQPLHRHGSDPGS

hERG (human ether-a-go-go-related gene) potassium channel, sequence (Q12809 whole entry): as above
cytochrome P450 2C9, sequence (P11712 whole entry): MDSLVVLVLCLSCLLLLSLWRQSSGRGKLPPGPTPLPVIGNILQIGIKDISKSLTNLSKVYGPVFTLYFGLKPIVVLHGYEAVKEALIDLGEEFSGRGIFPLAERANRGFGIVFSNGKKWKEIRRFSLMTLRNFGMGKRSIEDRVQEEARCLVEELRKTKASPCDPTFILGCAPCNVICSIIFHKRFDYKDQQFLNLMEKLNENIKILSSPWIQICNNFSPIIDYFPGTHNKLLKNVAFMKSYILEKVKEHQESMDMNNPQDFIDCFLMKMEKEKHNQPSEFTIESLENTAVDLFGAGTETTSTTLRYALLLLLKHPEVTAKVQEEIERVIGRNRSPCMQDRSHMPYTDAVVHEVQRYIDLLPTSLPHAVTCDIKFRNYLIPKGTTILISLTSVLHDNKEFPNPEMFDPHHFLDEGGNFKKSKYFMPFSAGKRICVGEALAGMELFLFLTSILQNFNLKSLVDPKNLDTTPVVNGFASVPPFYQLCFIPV
cytochrome P450 2C8, sequence (P10632 whole entry): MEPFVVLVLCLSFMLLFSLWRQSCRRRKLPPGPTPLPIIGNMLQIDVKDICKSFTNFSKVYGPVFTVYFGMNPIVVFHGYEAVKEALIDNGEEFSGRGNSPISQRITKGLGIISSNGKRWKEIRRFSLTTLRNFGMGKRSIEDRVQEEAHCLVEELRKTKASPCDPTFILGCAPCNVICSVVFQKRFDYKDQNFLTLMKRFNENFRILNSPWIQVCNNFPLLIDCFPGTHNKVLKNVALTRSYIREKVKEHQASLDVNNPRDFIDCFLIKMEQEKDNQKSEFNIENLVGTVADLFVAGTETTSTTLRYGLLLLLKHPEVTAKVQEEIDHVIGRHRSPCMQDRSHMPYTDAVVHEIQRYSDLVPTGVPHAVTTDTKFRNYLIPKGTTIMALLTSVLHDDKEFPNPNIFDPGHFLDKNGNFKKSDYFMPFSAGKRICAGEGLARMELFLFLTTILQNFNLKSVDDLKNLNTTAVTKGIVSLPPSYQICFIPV
cytochrome P450 2C19, sequence (P33261 whole entry): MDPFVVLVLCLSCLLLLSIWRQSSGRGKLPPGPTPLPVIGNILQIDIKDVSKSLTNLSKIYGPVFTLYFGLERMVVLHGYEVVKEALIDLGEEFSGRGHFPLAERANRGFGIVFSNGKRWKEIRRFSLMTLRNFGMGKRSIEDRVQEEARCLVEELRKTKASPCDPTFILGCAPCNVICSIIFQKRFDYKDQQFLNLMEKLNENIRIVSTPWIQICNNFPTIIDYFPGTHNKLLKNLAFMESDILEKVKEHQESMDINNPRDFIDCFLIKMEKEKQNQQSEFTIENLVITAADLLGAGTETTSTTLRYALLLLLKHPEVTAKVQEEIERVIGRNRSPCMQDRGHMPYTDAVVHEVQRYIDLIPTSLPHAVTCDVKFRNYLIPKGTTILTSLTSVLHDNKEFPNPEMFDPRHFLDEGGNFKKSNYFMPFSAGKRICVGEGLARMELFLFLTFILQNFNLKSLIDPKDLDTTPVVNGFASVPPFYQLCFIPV
neutrophil elastase in zymosan-stimulated human plasma, sequence (P08246 30-247): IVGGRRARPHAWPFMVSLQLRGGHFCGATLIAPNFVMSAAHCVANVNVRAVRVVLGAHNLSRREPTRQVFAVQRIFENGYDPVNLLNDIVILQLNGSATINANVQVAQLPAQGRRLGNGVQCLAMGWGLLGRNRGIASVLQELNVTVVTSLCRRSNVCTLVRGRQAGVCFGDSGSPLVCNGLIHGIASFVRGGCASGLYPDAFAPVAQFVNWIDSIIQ

| EC50 [1] | half-life at 1 μM [2] | Papp A→B at 10 µM [3] | Papp B→A at 10 µM [3] | solubility at 24 h [4] | IC50 (cytochrome P450 2C9) | IC50 (cytochrome P450 2C19) | IC50 (cytochrome P450 2C8) | Compound | IC50 [5] | inhibition at 10 µM (hERG potassium channel) |
| --- | --- | --- | --- | --- | --- | --- | --- | --- | --- | --- |
| 0.001 µM | > 2.17 h | 4.8 ×10⁻⁶ cm/s | 51 ×10⁻⁶ cm/s | 84 µg/mL (≈ 185 µM) | > 50 µM | > 50 µM | > 50 µM | CN1C(=O)N(c2cccc(C(F)(F)F)c2)C2=C(C(=O)CC2)[C@H]1c1ccc(C#N)cc1C(N)=O [Example 2, 5-Cyano-2-[(R)-3-methyl-2,5-dioxo-1-(3-trifluoromethyl-phenyl)-2,3,4,5,6,7-hexahydro-1H-cyclopentapyrimidin-4-yl]-benzamide] | > 30 µM | 4% |
| 0.001 µM | > 2.17 h | 6.6 ×10⁻⁶ cm/s | 87 ×10⁻⁶ cm/s | 53 µg/mL (≈ 102 µM) | > 50 µM | > 50 µM | > 50 µM | CN1C(=O)N(c2cccc(C(F)(F)F)c2)C2=C(C(=O)CC2)[C@H]1c1ccc(C#N)cc1-c1ccc(=O)n(C)c1 [Example 23, 4-[(R)-3-Methyl-2,5-dioxo-1-(3-trifluoromethyl-phenyl)-2,3,4,5,6,7-hexahydro-1H-cyclopentapyrimidin-4-yl]-3-(1-methyl-6-oxo-1,6-dihydro-pyridin-3-yl)-benzonitrile] | > 30 µM | 5% |
| 0.007 µM | > 2.17 h | 21 ×10⁻⁶ cm/s | 84 ×10⁻⁶ cm/s | 48 µg/mL (≈ 96.7 µM) | > 50 µM | > 50 µM | > 50 µM | CN1C(=O)N(c2cccc(C(F)(F)F)c2)C2=C(C(=O)CC2)[C@H]1c1ccc(C#N)cc1CNC(C)(C)C [Example 24, 3-(tert-Butylamino-methyl)-4-[(R)-3-methyl-2,5-dioxo-1-(3-trifluoromethyl-phenyl)-2,3,4,5,6,7-hexahydro-1H-cyclopentapyrimidin-4-yl]-benzonitrile] | > 30 µM | 7% |
